Compared with CCNC(=O)CN(c1c(Cc2c(F)cccc2F)cccc1OC)S(=O)(=O)c1ccc(OC)c(OC)c1, COC(=O)Cc1ccccc1CC(=O)NCCc1ccc(OC)c(OC)c1 is lower in melting point: 180 °C for the first, 88 to 91 °C for the second.

First: COC(=S)NCc1cn(-c2ccc(-n3ccc(C=O)c3)cc2)nn1
Second: c1cc(-n2ccnc2)cc(-n2cnc3cc(-c4ccon4)ccc32)c1
The melting point of the first is lower: 160 to 162 °C for the first, 230 to 234 °C for the second.

Compared with CCN(CC)C(C)CN1CCc2c(c(=O)oc3cc(OC)ccc23)C1 (stereo not drawn), CCOC(=O)c1cc2c3n(ccc-2n1)CC(C(OCC)OCC)=N3 is higher in melting point: 83 to 85 °C for the first, 242 to 244 °C for the second.

First: Cn1c(=O)on(-c2ccccc2)c1=O
Second: CN(N)c1cnn(-c2ccccc2)c(=O)c1Cl
The melting point of the first is lower: 98 to 99 °C for the first, 128 to 130 °C for the second.

First: CCN1C(=O)C2CC(c3ccc(N)cc3)(C2)C1=O
Second: Nc1ccc(OC23CC4CC(CC(C4)C2)C3)cc1
The melting point of the first is lower: 159 to 162 °C for the first, 172 to 175 °C for the second.

First: Cc1ccnc2c1C(=O)c1cc([N+](=O)[O-])ccc1-2
Second: CN(C)CCNC(=O)c1nnc(-c2ccccc2)cc1-c1cccc([N+](=O)[O-])c1
The melting point of the first is higher: 225 to 227 °C for the first, 157 to 158 °C for the second.

Compared with OC(CCl)CSc1ncc(Cl)cn1 (stereo not drawn), Cc1ccnc(C)c1NC(=O)NCCCl is higher in melting point: 99 °C for the first, 122 to 124 °C for the second.

First: CN1CCN(C(=O)c2cc(N)cc(C(F)(F)F)c2)CC1
Second: CCn1nc2c(n1)C(N1CCN(C)CC1)=Nc1cc(F)ccc1N2
The melting point of the first is lower: 114 to 115 °C for the first, 178 to 180 °C for the second.

Compared with COC(=O)c1ccc(Cn2cnc3c(Cl)nc(N)nc32)cc1, NC(=O)C1CCN(C(=O)c2ccc(NCc3cnc4nc(N)nc(N)c4n3)cc2)CC1 is higher in melting point: 150 to 155 °C for the first, > 300 °C for the second.

Compared with Cc1cn2c(=O)c(CCN3CCC(C(=O)c4ccc(F)cc4)CC3)cnc2n1Cc1ccccc1, O=C1c2c(-c3ccccc3)noc2CCC1CCCN1CCC(n2c(=O)[nH]c3ccccc32)CC1 (stereo not drawn) is higher in melting point: 157 °C for the first, 212 to 218 °C for the second.

First: COC1CN(C)S(=O)(=O)c2sccc21 (stereo not drawn)
Second: CC(C)C1C(O)=CC(=O)N1c1ccc(C#N)c(Cl)c1 (stereo not drawn)
The melting point of the first is lower: 61 to 63 °C for the first, 217 to 219 °C for the second.

First: Cc1onc(CCc2ccccc2)c1C(=O)O
Second: O=C(O)c1ccc(O)c(OCc2ccccc2)c1
The melting point of the first is lower: 154 to 156 °C for the first, 167 to 171 °C for the second.

Compared with Cc1ccc(S(=O)(=O)OCCc2ccc3[nH]cc(S(=O)(=O)c4ccccc4)c3c2)cc1, CN(C(=O)c1n[nH]c2c(=O)[nH]c3cc(Cl)ccc3c(=O)c12)c1ccccc1 is higher in melting point: 60 to 63 °C for the first, 308 °C for the second.

Compared with CC1Cc2cc3c(cc2C(c2ccc([N+](=O)[O-])cc2)=NN1c1ncccn1)OCO3 (stereo not drawn), COc1cccc2cc3c(c(-c4ccc5c(c4)OCO5)c12)CNC3=O is higher in melting point: 261 to 263 °C for the first, 295 to 298 °C for the second.

First: CCCn1c(=O)c2c(nc(C=Cc3cc(OC)c(OC)c(OC)c3S(=O)(=O)O)n2C)n(CCC)c1=O
Second: CCOC(=O)/C=C/c1cc(OCc2cn(-c3ccc(C(F)(F)F)cn3)nc2C(C)C)nn1C
The melting point of the first is higher: 248 to 250 °C for the first, 105 to 106 °C for the second.

Compared with Cc1nc(Cl)c2cc3c(cc2n1)OCCO3, COC(=O)c1c(C)c([N+](=O)[O-])cc2nc(Cl)c(Cl)nc12 is lower in melting point: 168 to 170 °C for the first, 155 to 157 °C for the second.

Compared with O=C1CC(c2cccc(-n3ccnc3)c2)=Nc2cc(N3C[C@@H](O)[C@@H](O)C3)c(-c3ccc(F)cc3)cc2N1, Clc1ccc([C@@]2(Cn3ccnc3)OC[C@H](COc3ccc4c(c3)CCN(CCCc3ccc(-c5ccccc5)cc3)C4)O2)c(Cl)c1 (racemic) is lower in melting point: 244 °C for the first, 125 to 127 °C for the second.

First: CSC1CCC(=O)C(C(=O)c2ccc(S(C)(=O)=O)cc2Cl)C1=O (stereo not drawn)
Second: CS(=O)(=O)Oc1ccc(O)cc1
The melting point of the first is higher: 146 to 149 °C for the first, 82 to 84 °C for the second.

First: CCOC(=O)/C=C/c1ccc(OCC2CCCO2)cc1Oc1ncc(C(F)(F)F)cc1Cl (stereo not drawn)
Second: CN(C(=O)CCCOc1ccc2nc3n(c(=O)c2c1)CC(=O)N3)C1CCCCC1
The melting point of the first is lower: 84 to 86 °C for the first, 200 to 202 °C for the second.

First: O=C(OCCl)c1c(Cl)cccc1Cl
Second: Cc1nn(C)c(O)c1C(=O)c1ccc(Cl)c(OCCn2cnnn2)c1Cl
The melting point of the first is higher: 70 to 72 °C for the first, 63 to 68 °C for the second.

Compared with O=[N+]([O-])c1ccc2c(C3CCN(C[C@H](O)COc4cccc5[nH]ccc45)CC3)c[nH]c2c1, COC(=O)C1=C(C)NC(C)=C(C(=O)OC)C1c1cccc(N(C)C(=NC#N)NCCCN2CCC(c3ccccc3)CC2)c1 is lower in melting point: 212 to 214 °C for the first, 85 to 90 °C for the second.

First: CC(C)N(O)C(=O)CCC1C=CC2=C(Cc3ccccc3CO2)C1=O (stereo not drawn)
Second: CN(C)C(=O)NCC1(C)OCCc2c1[nH]c1ccccc21 (stereo not drawn)
The melting point of the first is lower: 118 °C for the first, 153 to 155 °C for the second.

Compared with c1ccc(CN2CCN(c3onc4c3CCc3ccccc3-4)CC2)cc1, CCOc1noc(-c2ncn(C(c3ccccc3)(c3ccccc3)c3ccccc3)n2)c1C is higher in melting point: 148 to 149 °C for the first, 181 to 183 °C for the second.

Compared with CCC(=O)C1=C(O)CC(c2ccc3c(c2)OCO3)CC1=O (stereo not drawn), O=C(O)c1ccc(N(CC2CC2)c2cc3c4c(c2)CCCC4CCC3)cc1 is higher in melting point: 129 °C for the first, 214 to 216 °C for the second.

First: COc1ccc2ccc(C(O)C(F)(F)F)cc2c1 (stereo not drawn)
Second: CCC1=NC2(O)c3cc(-c4ccc(C(F)(F)F)cc4)ccc3CC2S1 (stereo not drawn)
The melting point of the first is lower: 85 to 87 °C for the first, 145 °C for the second.

First: CCCCCc1ccc(-c2ccc(C3CC(CCCCC)C(=O)O3)cc2)cc1 (stereo not drawn)
Second: CCCCc1ncc(CO)n1Cc1ccc(OCc2ccccc2C(=O)O)cc1
The melting point of the first is lower: 86.2 to 88.4 °C for the first, 115 to 116 °C for the second.

Compared with Nc1ccc(Cl)cc1NCC1CCCCC1, CCOC(=O)C1CCCCCCC(=O)C(=O)N1 (stereo not drawn) is higher in melting point: 62 °C for the first, 129 to 130 °C for the second.

First: CC(C)(CNc1ccc(C2=NNC(=O)CC2)cc1)NCC(O)COc1cc(Cl)ccc1C#N (stereo not drawn)
Second: CC(C)(Oc1ccc(C#N)cc1Cl)c1ccccc1
The melting point of the first is higher: 160 to 162 °C for the first, 60 to 62 °C for the second.

Compared with O=c1c2c(Cc3ccsc3)n[nH]c2c2cccnc2n1-c1cccc(OC(F)(F)F)c1, CSCC(C)(C)NC(=O)c1c(NC(=O)c2cc(C(F)(F)F)nn2-c2ncccc2Cl)ccc2cn[nH]c12 is lower in melting point: 247 to 251 °C for the first, 100 to 105 °C for the second.

First: O=C1O[C@@H]2C[C@@]1(O)C[C@H]1OC(c3ccccc3)O[C@@H]21 (stereo partly drawn)
Second: CCOC(=O)C1CCn2c(cc3ccccc32)C1O (stereo not drawn)
The melting point of the first is lower: 96 to 97 °C for the first, 116 to 120 °C for the second.

First: O=C1C=CC2=C3OC=CC=C3C=CC2O1 (stereo not drawn)
Second: COc1ccc2[nH]ncc2c1C
The melting point of the first is lower: 96 to 98 °C for the first, 148 to 149 °C for the second.

Compared with CN(C)NC(=O)N1CCC(=Cc2cc(C(C)(C)C)c(O)c(C(C)(C)C)c2)C1=O, CCCCCN(C(=O)Nc1ccc(C(=O)O)cc1)c1ccc2c(c1)C(C)(C)CCC2(C)C is higher in melting point: 133 to 134 °C for the first, 184 to 186 °C for the second.

Compared with CCCCOP(=O)(OCCCC)C(Sc1cc(F)ccc1O)=P(OCCCC)(OCCCC)OCCCC, CC(C)(COc1ccc(Cl)cc1)C(=O)C(Oc1ccc(Cl)cc1)n1ccnc1 (stereo not drawn) is higher in melting point: 165 to 166 °C for the first, 214 to 217 °C for the second.

First: Cc1cc(-c2cccc(Cl)c2)nn2cnnc12
Second: c1ccc2[nH]c(Cn3ccnc3)nc2c1
The melting point of the first is lower: 173 to 176 °C for the first, 198 to 200 °C for the second.

First: CC(=O)N(C)C(=N[N+](=O)[O-])N(Cc1cnc(Cl)s1)C(C)=O
Second: Cc1cccc([N+](=O)[O-])c1C=NO
The melting point of the first is lower: 72 to 74 °C for the first, 190 to 192 °C for the second.

First: CC(C)(C)n1nc(Nc2ccccc2)c(C#N)c1N
Second: CC#CCn1c(=N)sc2cc(OC(F)(F)F)ccc21
The melting point of the first is higher: 123 to 125 °C for the first, 116 °C for the second.

Compound CNCC(O)c1ccc(Br)cc1 (stereo not drawn) has a melting point of 91.5 to 93.7 °C.

Reference: a melting point compilation (Tetko et al.; mined from patent text by program, amines drawn as free bases though some values may be those of a salt)
